The values that follow come from patent US4201866A, “O-Hemi-succinate of propranolol” (American Home Products Corporation, priority 1977, dated 1980).

Counter-ions that a name gives are not always drawn.

The data set can be described thus: Oral administration of the compound of Example 6; plasma levels (Example 7). The data set is classed as in vivo. The note with it: beagle dogs. The procedure: In this experiment, four beagle dogs were given an 80 mg. oral dose of propranolol HCl or an equivalent dose of the o-hemi-succinate. The animals were divided into two groups of two, each group receiving the drugs according to a crossover design. The crossover experiment was repeated twice. A period of at least one week elapsed between each dosing day. Blood samples were obtained at regular intervals after dosing a plasma was analyzed for free propranolol concentrations.
The compound of Example 6 was orally administered to beagle dogs in a similar manner as Example 2. Plasma levels of the compound of Example 6 were twice as high as those obtained after an equivalent dose of propranol hydrochloride.

Take `CCOC(=O)CCC(=O)OC(CNC(C)C)COc1cccc2ccccc12` (stereo not shown) [Example 6, Butanedioic acid-1-[(2-(1-methylethyl)amino] -1-[(1-naphtalenyloxy)methyl]diethylether hydrochloride]: the “Plasma levels compared with equivalent dose of propranolol hydrochloride” value is listed as “twice as high”.
